These results are taken from patent US4916145A, “Substituted n-[(pyridyl)alkyl]aryl-carboxamide” (Hoffmann-La Roche Inc., priority 1987, dated 1990).

Each structure is given as a SMILES string. Bounds are passed on as bounds.

Assay [1] has as its system PAF-Induced Platelet Count Decrease. Put plainly: PAF-Induced Platelet Count Decrease. The following applies: for inhibition in vivo at 3 mg/kg: Cavia porcellus, Platelet, 0.25 h, iv, 15 minutes pretreatment time, read-out: PAF-Induced Platelet Count Decrease % Inhibition, i.v. The class given is in vivo, guinea pig. The protocol: Male Hartley guinea pigs weighing between 500 and 900 grams were fed standard guinea pig chow and tap water ad libitum. PAF was solubilized in ethanol and stored as a 2 mM stock solution at -70° C. The stock solution of PAF was diluted to […] in Tris buffer pH 7.4 and 0.1% BSA for all experiments.
Guinea pigs were anesthetized with urethane (1.6 g/kg, i.p.). A catheter (PE50) was introduced into the right carotid artery for withdrawing blood. A second catheter PE10) was introduced into the jugular vein for injecting drugs and for administering the PAF challenge (75 ng/kg, i.v.). A control blood sample was obtained and platelets were counted in a whole blood platelet analyzer. PAF was then given and blood samples were taken 15, 30, and 60 seconds after the challenge for platelet counts. Fifteen minutes later, selected concentrations of the test compound were solubilized in DMSO and injected intravenously into a group of 4-6 animals. Only one concentration of the test drug was used in each animal group. Fifteen minutes after drug injection, blood samples were taken before and 15, 30, and 60 sec after the PAF challenge, and analyzed for platelet number.
Animals were anesthetized with sodium pentobarbital (35 mg/kg. i.p.) and the carotid artery and jugular vein were cannulated as described above. The cannulae were exteriorized at the base of the neck and the animals were allowed to recover. Conscious, unrestrained guinea pigs which were allowed to recover from surgery for at least 18 hours were used in the experiments. The animals were challenged two times with PAF (120 ng/kg, i.v.); the first to establish a consistent response to PAF and the second to serve as a control from the PAF challenge. Blood samples were taken before and 15, 30, and 45 seconds after PAF challenge and platelets were counted. Thirty minutes after the control PAF challenge, the animals were orally dosed with either gum acacia or the test compound. Animals were then challenged with PAF at 1, 3, 5, and 24 hours after the administration of the drug.
The % change, i.e., the difference in platelet number before and after PAF challenge was calculated by: [formula] The % activity of drug was then determined by
Statistical significance (p≤0.05) of the difference between the mean PAF control and mean drug treated activity was determined with the pared Students's t-test.

Assay [2] concerns the target T1, PAF binding, dog platelets (Canis lupus familiaris, UniProt A0A8I3NSH0).
T1 sequence (A0A8I3NSH0 1-343): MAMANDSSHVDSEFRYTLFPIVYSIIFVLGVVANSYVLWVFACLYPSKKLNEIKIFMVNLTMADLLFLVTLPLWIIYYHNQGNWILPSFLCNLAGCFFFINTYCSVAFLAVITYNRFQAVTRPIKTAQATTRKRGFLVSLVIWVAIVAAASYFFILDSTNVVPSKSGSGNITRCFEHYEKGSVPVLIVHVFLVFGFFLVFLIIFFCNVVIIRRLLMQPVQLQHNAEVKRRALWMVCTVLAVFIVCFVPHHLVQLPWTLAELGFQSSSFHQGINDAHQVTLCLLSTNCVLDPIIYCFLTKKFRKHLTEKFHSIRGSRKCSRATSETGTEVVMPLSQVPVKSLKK
Put plainly: PAF Binding Assay (3H-PAF binding to washed dog platelets). To be noted: 10 minutes at room temperature.
Procedure: The binding assay was performed in 400 μl polyethylene microcentrifuge tubes (Beckman) containing 50 μl of an oil mixture of 2 parts Siliconol AR200 (Serva): 1 part Silicone Fluid (Arthur H. Thomas). Buffer, standards, or analogs 150 μl total volume) were added to the tubes. Radiolabelled ^3 H-PAF (50 μl) was then added to the tubes. The reaction was started by the addition of 50 μl of dog platelets (2×10^7 platelets). The tubes were capped, inverted several times to mix, and incubated for 10 minutes at room temperature. The platelets were separated from the incubation mixture by centrifuging 1 minute in a Beckman Microfuge B centrifuge. The tip of the microfuge tube was cut off, and the platelets were washed out of the tip with 200 μl of 50% methanol (Burdick and Jackson). Aquasol (NEN, 10 ml) was added and the radioactivity in the samples was determined using an LS 8100 Beckman liquid scintillation counter linked to a Techtran tape recorder. Data was processed through an in-house computer system. Alternatively, radioactivity was determined using a Searle Mark III liquid scintillation counter linked to a Iso-Data microprocessor.
Blood was collected from anesthesized or unanesthesized dogs into 5ml plastic centrifuge tubes containing 3.8% sodium citrate as the anticoagulant (1 volume of citrate/9 volumes of blood). The red cells were removed by centrifugation for 15 minutes at 600 rpm (100-125 g) at room temperature. An aliquot of the supernatant platelet rich Plasma (PRP) was saved for cell counting and the remainder was acidified to pH 6.5 with 0.15M citric acid. The platelet pellet was obtained after a 10 minute centrifugation at 2000 rpm (1000 g) at room temperature. Washed platelets were prepared by resuspending the platelet pellet once with PBS containing 1 mM EDTA, centrifuging as noted, and then resuspending the platelets in 0.1% BSA-PBS. An aliquot of the washed platelets was counted, platelets used for binding assays were diluted to 2×10^7 platelets/assay tube (4×10^8 platelets/ml).

In assay [3] the target is T2, Thromboxane Synthase (TXA2 Syn.) (Homo sapiens, UniProt P24557).
T2 construct: microsomal fractions from human platelets as enzyme source; from tissue; host or cells: microsomal fractions from human platelets
T2 sequence (P24557 1-533): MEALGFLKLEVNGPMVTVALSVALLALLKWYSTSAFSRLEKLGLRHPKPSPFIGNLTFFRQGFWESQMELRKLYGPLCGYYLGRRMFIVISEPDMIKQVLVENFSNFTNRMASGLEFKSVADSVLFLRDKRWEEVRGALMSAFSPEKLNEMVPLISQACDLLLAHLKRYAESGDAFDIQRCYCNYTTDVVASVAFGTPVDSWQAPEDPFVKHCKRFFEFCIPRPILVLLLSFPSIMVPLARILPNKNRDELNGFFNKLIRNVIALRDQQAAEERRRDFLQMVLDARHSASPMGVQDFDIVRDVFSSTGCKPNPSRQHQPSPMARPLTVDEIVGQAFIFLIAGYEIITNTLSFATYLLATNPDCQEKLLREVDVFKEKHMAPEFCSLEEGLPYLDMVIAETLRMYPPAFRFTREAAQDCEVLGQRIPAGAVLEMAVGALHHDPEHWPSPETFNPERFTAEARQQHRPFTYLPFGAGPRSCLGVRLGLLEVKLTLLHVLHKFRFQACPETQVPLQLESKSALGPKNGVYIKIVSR
Put plainly: TXA2 Synthesis Inhibition (thromboxane synthase, microsomal fractions from human platelets). The class given is biochemical. The following applies: human platelet microsomes, 10 μM 14C-PGH2, 22°, 2 minutes. The protocol: Thromboxane synthase inhibitory activity is measured by following the conversion of ^14 C-[…] using microsomal fractions from human platelets as enzyme source. In the aqueous incubation medium. The TXA2 decomposes rapidly into TXB2 . The amount of TXA2 syn. is adjusted so that under the conditions of the assay approximately 80-90% of the substrate. PGH2, is converted to product in control tubes. To prepare ^14 C-PGH2, ^14 C-AA(50-60mCi/mmole; Rose Chem.) is incubated with sheep seminal vesicular gland microsomes for 1.5 min. at 37° and then the ^14 C-PGH2 is extracted with diethylether, purified on columns of Sephadex LH-20 or silicic acid, and stored in acetone at -70° C. Incubations are done as follows. Sufficient ^14 C-PGH2 to yield a final substrate concentration of 10 μM ( 30,000 cpm) is added to the incubation tubes and then the acetone is removed under nitrogen. The tubes are placed in an ice bath and then 215 μl of ice cold phosphate buffered saline, 10 μof ethanol (control) or of test drug in ethanol, and 25 μl of the microsomal suspension are added with mixing in that order as rapidly as possible. The tubes are incubated at 22° for 2 minutes, the reaction is stopped and then the radioactive products and the unconverted PGH2 are extracted and analyzed by thin layer chromatography. The amount of ^14 C-PGH2 converted to products is analyzed by thin layer chromatography. The amount of ^14 C-PGH2 converted to products was used as a measure of TXA synthase activity. Inhibitors were tested initially at a concentration of 100 μM.

Assay [4] deals with PAF-Induced Bronchoconstriction. Put plainly: PAF-Induced Bronchoconstriction Assay. It is filed as in vivo, guinea pig. The following applies: Cavia porcellus; for inhibition in vivo at 1 mg/kg: 1 min, 1 mg/kg iv, 1 minute pretreatment; for inhibition in vivo at 50 mg/kg: po, 2 hours pretreatment. The protocol:
The in vivo ability of compounds to inhibit PAF-induced bronchoconstriction in guinea pigs was assessed by the intravenous and oral routes of administration. The intravenous technique utilized male guinea pigs (Hartley strain, Charles River) weighing 400-600 g. Animals were anesthetized with urethane (2 g/kg) intraperitoneally and a polyethylene cannula was inserted into the jugular vein for intravenous drug administration. Tracheal pressure ([…]) was recorded from a Statham pressure transducer (P 32 AA). Propranolol was administered 5 minutes prior to challenge with PAF. Two minutes later spontaneous breathing was arrested with succinylcholine chloride (1.2 mg/kg) administered intravenously, and the animals were ventilated with a Harvard (Model 680) small animal respirator set at 40 breaths/min and 4.0 cc stroke volume. Control vehicle or test drug was administered through the cannula into the jugular vein 1 minute before the animals were challenged with a maximum constrictory dose of PAF (1.0 μg/kg) given intravenously. The change in tracheal pressure was averaged for four control and four drug-treated animals and percent inhibition was calculated.
For determination of oral activity, animals were dosed with test compound or vehicle two hours prior to challenge with PAF (1.0 μg/kg, i.v.).
The change in tracheal pressure is determined by subtracting the steady state baseline achieved after administration of succinylcholine from the peak bronchoconstriction seen after challenge with PAF. The mean change in tracheal pressure is calculated for each test compound and compared to the mean change in tracheal pressure for the control animals to give the percent inhibition of bronchoconstriction. The standard error is calculated as the standard error of the mean.

Turning to `COc1ccc(-c2ccc(C(=O)NC(C)CCCc3cccnc3)cc2)cc1OC` (racemic) [(rac.)-3',4'-Dimethoxy-N-[1-methyl-4-(3-pyridinyl)butyl][1,1'-biphenyl]-4-carboxamide], the inhibition in vivo at 3 mg/kg in assay [1] was 26%. In assay [1] (no dose footnote printed), the “PAF-Induced Platelet Count Decrease % Inhibition, po” value is 75 ± 21%.

In general, IC50 refers to the concentration needed to halve the response being measured. For `Cc1ccc(-c2ccc(C(=O)NC(C)CCCc3cccnc3)cc2)cc1C` (racemic) [(rac.)-3',4'-Dimethyl-N-[1-methyl-4-(3-pyridinyl)butyl][1,1'-biphenyl]-4-carboxamide], the results for the IC50 in assay [2] and in assay [3] were 200 nM and 100 to 1000 nM, respectively. Besides, in assay [1], the inhibition in vivo at 3 mg/kg came out at 12%.

Take `COc1cccc(-c2ccc(C(=S)NC(C)CCCc3cccnc3)cc2)c1` (racemic) [(rac.)-3'-Methoxy-N-(1-methyl-4-(3-pyridinyl)butyl][1,1'-biphenyl]-4-carbothioamide]: the IC50 is 120 nM in assay [2] and 100 to 1000 nM in assay [3]. Further, the inhibition in vivo at 3 mg/kg in assay [1] was determined as 6%. Further, in assay [4], the inhibition in vivo at 1 mg/kg came out at 16 ± 14%.

`Cc1ccc(-c2ccc(C(=S)NC(C)CCCc3cccnc3)cc2)cc1C` (racemic) [rac.-3',4'-Dimethyl-N-[1-methyl-4-(3-pyridinyl)butyl][1,1'-biphenyl]-4-carbothioamide]: the IC50 in assay [2] was 110 nM. Also, the inhibition in vivo at 3 mg/kg in assay [1] was found to be 28%. In addition, the inhibition in vivo at 1 mg/kg in assay [4] is 4 ± 4%.

On to `COc1ccc(-c2ccc(C(=S)NCCCCc3cccnc3)cc2)cc1OC` [3',4'-Dimethoxy-N-[4-(3-pyridinyl)butyl][1,1'-biphenyl]-4-carbothioamide], for which the IC50 in assay [3] turned out to be 225 nM. Further, in assay [1] (100 mg/kg, 3 hours, pretreatment), the “PAF-Induced Platelet Count Decrease % Inhibition, po” value came out at 53%. Further, the inhibition in vivo at 3 mg/kg in assay [1] turned out to be 15%.

Turning to `Cc1ccc(-c2ccc(C(=O)NCCCCc3cccnc3)cc2)cc1C` [3',4'-Dimethyl-N-[4-(3-pyridinyl)butyl][1,1-biphenyl]-4-carboxamide], the half-inhibitory concentration (IC50) in assay [2] was found to be 700 nM; in assay [3], 125 nM.

As to `Cc1ccc(-c2ccc(C(=O)NCCCCCCc3cccnc3)cc2)cc1C` [3',4'-Dimethyl-N-[6-(3-pyridinyl)hexyl][1,1'-biphenyl]-4-carboxamide], the values for the IC50 in assay [2] and in assay [3] were 450 nM and 600 nM, respectively. Moreover, the inhibition in vivo at 3 mg/kg in assay [1] turned out to be 27%.

In assay [2], `COc1ccc(-c2cc(C)c(C(=O)NCCCCc3cccnc3)c(C)c2)cc1OC` [3',4'Dimethoxy-3,5-dimethyl-N-[4-(3-pyridinyl)butyl][1,1'-biphenyl]-4-carboxamide] gave a half-inhibitory concentration (IC50) of 60 nM. Besides, the inhibition in vivo at 3 mg/kg in assay [1] was 14%. Moreover, in assay [4], the inhibition in vivo at 1 mg/kg came out at 17 ± 11%.

With `O=C(NCCCCc1cccnc1)c1ccc(-c2cccc(O)c2)cc1` [3'-Hydroxy-N-[4-(3-pyridinyl)-butyl][1,1'-biphenyl]-4-carboxamide], the 50% inhibitory concentration (IC50) in assay [2] was 300 nM; in assay [3] it was under 100 nM.

Consider `COc1cccc(-c2ccc(C(=O)NCCCCc3cccnc3)cc2)c1` [3'-Methoxy-N-[4-(3-pyridinyl)butyl][1,1'-biphenyl]-4-carboxamide], for which the half-maximal inhibitory concentration (IC50) in assay [2] worked out at 280 nM. For the same compound, the IC50 in assay [3] came out at 25 nM. In addition, in assay [4], the inhibition in vivo at 1 mg/kg stood at 70 ± 10% and the inhibition in vivo at 50 mg/kg worked out at 55 ± 17%.

As to `O=C(NCCCCc1cccnc1)c1ccc(-c2ccccc2)c(-c2ccccc2)c1` [3,4-Diphenyl-N-[4-(3-pyridinyl)butyl]-benzamide], the inhibition in vivo at 3 mg/kg in assay [1] was determined as 49%. For the same compound, in assay [4], the inhibition in vivo at 1 mg/kg is 21 ± 4% and the inhibition in vivo at 50 mg/kg stood at 33 ± 12%.

Consider `COc1cccc(-c2ccc(C(=O)NCCCCc3cccnc3)cc2-c2cccc(OC)c2)c1` [3,4-bis-(3-Methoxyphenyl)-N-[4-(3-pyridinyl)butyl]-benzamide], for which the inhibition in vivo at 3 mg/kg in assay [1] was found to be 4%. In assay [4], the inhibition in vivo at 1 mg/kg turned out to be 12 ± 6%.

With `Cc1ccc(-c2ccc(-c3nnnn3CCCCc3cccnc3)cc2)cc1C` [3-[4-[5-(3',4'-Dimethyl-[1,1'-biphenyl]-4-yl)-1H-tetrazol-1-yl]butyl]pyridine], the values for the half-inhibitory concentration (IC50) in assay [2] and in assay [3] were 800 nM and over 1000 nM, respectively. Also, the inhibition in vivo at 1 mg/kg in assay [4] came to 57 ± 4%.

As to `Cc1ccc(-c2ccc(-c3nnnn3CCCCCCc3cccnc3)cc2)cc1C` [3-[6-[5-(3',4'-Dimethyl-[1,1'-biphenyl]-4-yl)-1H-tetrazol-1-yl]hexyl]pyridine], the figures for the IC50 in assay [2] and in assay [3] were 200 nM and 100 to 1000 nM, respectively. Moreover, in assay [1], the inhibition in vivo at 3 mg/kg came out at 0%. The inhibition in vivo at 1 mg/kg in assay [4] was 18 ± 13%.

Turning to `COc1cccc(-c2ccc(C(=O)N[C@H](C)CCCc3cccnc3)cc2)c1` [(R)-3'-Methoxy-N-[1-methyl-4-(3-pyridinyl)butyl]-[1,1'-biphenyl]-4-carboxamide], in assay [2], the IC50 was 20 nM. The inhibition in vivo at 3 mg/kg in assay [1] is 17%.

In the case of `O=C(NCCCCc1cccnc1)c1ccc(-c2ccccc2)cc1` [N-[4-(3-Pyridinyl)butyl]-[1,1'-biphenyl]-4-carboxamide], in assay [3], 100 nM corresponded to half-maximal inhibition (IC50). For the same compound, the inhibition in vivo at 1 mg/kg in assay [4] came to 42 ± 7%.
